Reference: ChEMBL document CHEMBL2074037, “Molecular characterization and tissue distribution of a new organic anion transporter subtype (oatp3) that transports thyroid hormones and taurocholate and comparison with oatp2” (J Biol Chem, 1998)
Each block holds one molecule with its values, some of them ahead of it.

Legend:
[1] = target: T1, Solute carrier organic anion transporter family member 1A4 (Rattus norvegicus, UniProt O35913); test: TP_TRANSPORTER: inhibition of Taurocholate uptake (Taurochorate: 1 uM, E217betaG: 200 uM, data not shown) in Xenopus laevis oocytes; assay type: functional, cell-based; conditions: oocyte
T1 sequence (O35913 whole entry): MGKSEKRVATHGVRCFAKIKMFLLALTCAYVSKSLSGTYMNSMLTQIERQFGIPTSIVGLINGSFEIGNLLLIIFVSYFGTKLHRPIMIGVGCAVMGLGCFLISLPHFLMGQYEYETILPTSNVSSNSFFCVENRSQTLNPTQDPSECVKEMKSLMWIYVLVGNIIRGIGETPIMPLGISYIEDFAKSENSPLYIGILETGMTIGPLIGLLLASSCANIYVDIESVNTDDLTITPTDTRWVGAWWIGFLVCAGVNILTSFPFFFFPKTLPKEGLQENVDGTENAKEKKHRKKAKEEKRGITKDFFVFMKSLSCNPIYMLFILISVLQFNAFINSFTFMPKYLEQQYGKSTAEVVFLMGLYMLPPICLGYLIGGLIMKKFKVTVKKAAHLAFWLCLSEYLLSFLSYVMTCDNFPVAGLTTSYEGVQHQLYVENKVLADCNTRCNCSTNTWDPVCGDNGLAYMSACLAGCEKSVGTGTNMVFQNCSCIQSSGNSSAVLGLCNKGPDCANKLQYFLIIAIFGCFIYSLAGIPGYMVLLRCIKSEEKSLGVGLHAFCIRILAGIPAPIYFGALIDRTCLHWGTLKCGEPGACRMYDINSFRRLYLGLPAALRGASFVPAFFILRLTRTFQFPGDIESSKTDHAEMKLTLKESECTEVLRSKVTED

[2] = target: T1, Solute carrier organic anion transporter family member 1A4; test: TP_TRANSPORTER: inhibition of Taurocholate uptake (Taurochorate: 1 uM, T4: 200 uM, data not shown) in Xenopus laevis oocytes; assay type: functional, cell-based; conditions: oocyte
[3] = target: T1, Solute carrier organic anion transporter family member 1A4; test: TP_TRANSPORTER: inhibition of Taurocholate uptake (Taurochorate: 1 uM, T3: 200 uM, data not shown) in Xenopus laevis oocytes; assay type: functional, cell-based; conditions: oocyte
[4] = target: T1, Solute carrier organic anion transporter family member 1A4; test: TP_TRANSPORTER: inhibition of Taurocholate uptake (Taurochorate: 1 uM, BSP: 200 uM, data not shown) in Xenopus laevis oocytes; assay type: functional, cell-based; conditions: oocyte
[5] = substrate: N[C@@H](Cc1cc(I)c(Oc2cc(I)c(O)c(I)c2)c(I)c1)C(=O)O; test: (§1) TP_TRANSPORTER: uptake in Xenopus laevis oocytes; assay type: functional, cell-based, Oocyte
[6] = substrate: N[C@@H](Cc1cc(I)c(Oc2ccc(O)c(I)c2)c(I)c1)C(=O)O; test: as §1; assay type: functional, cell-based, Oocyte

Molecule: C[C@]12CC[C@@H]3c4ccc(O)cc4CC[C@H]3[C@@H]1CC[C@@H]2O[C@@H]1O[C@H](C(=O)O)[C@@H](O)[C@H](O)[C@H]1O [ESTRADIOL 17B GLUCURONIDE]
Activity [1]: inhibitor [+]

Activity [2]: inhibitor [+]
Molecule: N[C@@H](Cc1cc(I)c(Oc2cc(I)c(O)c(I)c2)c(I)c1)C(=O)O [LEVOTHYROXINE]

Activity [3]: inhibitor [+]
Molecule: N[C@@H](Cc1cc(I)c(Oc2ccc(O)c(I)c2)c(I)c1)C(=O)O [LIOTHYRONINE]

Molecule: O=C1OC(c2ccc(O)c(S(=O)(=O)[O-])c2)(c2ccc(O)c(S(=O)(=O)[O-])c2)c2c(Br)c(Br)c(Br)c(Br)c21.[Na+].[Na+] [SULFOBROMOPHTHALEIN SODIUM]
Activity [4]: inhibitor [+]

B1: Solute carrier organic anion transporter family member 1A4 (Rattus norvegicus) (protein)
chain: T1 sequence (O35913 whole entry)
Km [5]: 6.53 µM | Km [6]: 5.87 µM

B2: Solute carrier organic anion transporter family member 1A5 (Rattus norvegicus) (protein)
chain: MGETEKRVATHEVRCFSKIKMFLLALTWAYVSKSLSGIYMNTMLTQIERQFDIPTSIVGFINGSFEIGNLLLIIFVSYFGTKLHRPIMIGVGCVIMGLGCFLMSLPHFLMGRYEYETTISPTSNLSSNSFLCMENRSQTLKPTQDPAECIKEMKSLMWIYVLVGNIIRGIGETPIMPLGISYIEDFAKSENSPLYIGILETGKVFGPIVGLLLGSFCASIYVDTGSVNTDDLTITPTDTRWVGAWWIGFLICAGVNILSSIPFFFFPKTLPKEGLQDDVDGTNNDKEEKHREKAKEENRGITKDFLPFMKSLSCNPIYMLLILTSVLQINAFINMFTFLPKYLEQQYGKSTAEVVLLIGVYNLPPICIGYLLIGFIMKKFKITVKKAAYMAFCLSLFEYLLYFLHFMITCDNFPVAGLTASYEGVHHPLYVENKVLADCNRGCSCSTNSWDPVCGDNGLAYMSACLAGCKKSVGTGTNMVFQNCSCIRSSGNSSAVLGLCKKGPECANKLQYFLIMSVIGSFIYSITAIPGYMVLLRCIKPEEKSLGIGLHAFCTRVFAGIPAPIYFGALIDRTCLHWGTLKCGEPGACRMYNINNFRRIYLVLPAALRGSSYLPALFILILMRKFQFPGEIDSSETELAEMKITVKKSECTDVHGSPQVENDGELKTRL
Km [5]: 4.93 µM | Km [6]: 7.33 µM
